Test results taken from patent publication US20260022142A1, “MACROCYCLIC IMMUNOMODULATORS” (Bristol-Myers Squibb Company, priority 2022, published 2026).
Bridge positions count the residues as written; N and C are the ends. Square brackets hold non-standard residues; d marks the D form. Peptide text beside a SMILES is read from it. * marks the point of attachment. ξ: configuration not given here. Phe(3,4-Cl2) = N[C@@H](Cc1ccc(Cl)c(Cl)c1)C(=O)O; Phe(4-COOH) = N[C@@H](Cc1ccc(C(=O)O)cc1)C(=O)O; Bip = N[C@@H](Cc1ccc(-c2ccccc2)cc1)C(=O)O; Phe(2-Cl) = N[C@@H](Cc1ccccc1Cl)C(=O)O; Phe(3-Me) = Cc1cccc(C[C@H](N)C(=O)O)c1; Val(3-OH) = CC(C)(O)[C@H](N)C(=O)O; hArg = N=C(N)NCCCC[C@H](N)C(=O)O; Cha = N[C@@H](CC1CCCCC1)C(=O)O; Cit = NC(=O)NCCC[C@H](N)C(=O)O; Thr(3ξ) = CC(O)[C@H](N)C(=O)O; 12Ado = NCCCCCCCCCCCC(=O)O; Carboxymethyl = O=C(O)C*; Orn = NCCC[C@H](N)C(=O)O; Aun = NCCCCCCCCCCC(=O)O; Dab = NCC[C@H](N)C(=O)O; Nva = CCC[C@H](N)C(=O)O; Dap = NC[C@H](N)C(=O)O; AEEA = NCCOCCOCC(=O)O

Biological target: T1, PD-1/PD-L1 interaction (PE-labeled human PD-L1-Ig binding to Jurkat cell line over-expressing human PD-1) (Homo sapiens, UniProt Q15116)
T1 construct: expressed in transfected cells; host or cells: Jurkat
T1 sequence (Q15116 25-288): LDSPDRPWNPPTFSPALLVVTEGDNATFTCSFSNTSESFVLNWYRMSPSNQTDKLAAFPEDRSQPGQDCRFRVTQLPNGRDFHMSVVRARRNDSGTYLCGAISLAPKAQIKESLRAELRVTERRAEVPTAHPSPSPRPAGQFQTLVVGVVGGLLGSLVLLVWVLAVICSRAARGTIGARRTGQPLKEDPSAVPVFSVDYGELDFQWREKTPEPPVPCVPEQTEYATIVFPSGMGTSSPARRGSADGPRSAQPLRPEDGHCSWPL
Assay: Jurkat-PD-1 Cell Binding High-Content Screening Assay (CBA)
Assay type: cell-based
Details: Jurkat cell line over-expressing human PD-1; PE-labeled PD-L1-Ig 20 nM final; read-out: Jurkat hPD1-PDL1 IC50
Method in brief: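 First, compound is added to PD-1-expressing Jurkat cells in serum-containing DMEM and left 2 h at 37° C. Next, PE-conjugated PD-L1-Ig is introduced at 20 nM final concentration for 1 hour. Finally, cells are fixed in 4% paraformaldehyde with Hoechst 33342, washed and imaged.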

IC50 | SMILES
5.4 nM | CC(C)C[C@H]1NC(=O)[C@H](CCCN)NC(=O)[C@H](C(C)C)NC(=O)[C@H](Cc2ccc(-c3ccccc3)cc2)NC(=O)[C@H](C(C)C)NC(=O)[C@H](Cc2c[nH]c3ccccc23)NC(=O)[C@H](CC(=O)O)NC(=O)[C@H](Cc2ccc(OCC(=O)O)cc2)NC(=O)[C@H](CN)NC(=O)CSC[C@@H](C(=O)NCCOCCOCC(=O)NCCCCCCCCCCC(=O)O)NC(=O)[C@H](CCCCN)NC(=O)[C@H](C(C)C)NC(=O)[C@H](CC2CCCCC2)NC(=O)[C@H](CCN)NC1=O [Compound 2565] ({CH2CO}-[Dap]Y(Carboxymethyl)DWV[Bip]V[Orn][dL][Dab][Cha]VKC[AEEA][Aun]-OH; thioether N-14)
30.5 nM | Cc1cccc(C[C@@H]2NC(=O)[C@H](CC(=O)O)NC(=O)[C@H](Cc3ccc(OCC(=O)O)cc3)NC(=O)[C@H](CN)NC(=O)CSC[C@@H](C(=O)N[C@@H](CCN)C(=O)NCCCCCCCCCCC(=O)O)NC(=O)[C@@H](CC(N)=O)NC(=O)[C@H](C(C)C)NC(=O)[C@H](CC(C)C)NC(=O)[C@H](CCN)NC(=O)[C@@H](CC(C)C)NC(=O)[C@H](CCCN)NC(=O)[C@H](Cc3ccc(O)cc3)NC(=O)[C@H](Cc3ccc(-c4ccccc4)cc3)NC(=O)[C@H](C(C)C)NC2=O)c1 [Compound 2755] ({CH2CO}-[Dap]Y(Carboxymethyl)D[Phe(3-Me)]V[Bip]Y[Orn][dL][Dab]LV[dN]C[Dab][Aun]-OH; thioether N-14)
16.3 nM | Cc1cccc(C[C@@H]2NC(=O)[C@H](CC(=O)O)NC(=O)[C@H](Cc3ccc(OCC(=O)O)cc3)NC(=O)[C@H](CCCCNC(=N)N)NC(=O)CSC[C@@H](C(=O)N[C@@H](CCN)C(=O)N[C@@H](CO)C(=O)NCCCCCCCCCCCC(=O)O)NC(=O)[C@H](C(C)O)NC(=O)[C@H](C(C)C)NC(=O)[C@H](CC3CCCCC3)NC(=O)[C@H](CCN)NC(=O)[C@@H](CC(C)C)NC(=O)[C@H](CCCN)NC(=O)[C@H](CCCNC(N)=O)NC(=O)[C@H](Cc3ccc(-c4ccccc4)cc3)NC(=O)[C@H](C(C)C)NC2=O)c1 (stereo partly drawn) [Compound 3570] ({CH2CO}-[hArg]Y(Carboxymethyl)D[Phe(3-Me)]V[Bip][Cit][Orn][dL][Dab][Cha]V[Thr(3ξ)]C[Dab]S[12Ado]-OH; thioether N-14)

The remaining lines, values behind:

SMILES | IC50
Cc1cccc(C[C@@H]2NC(=O)[C@H](CC(=O)O)NC(=O)[C@H](Cc3ccc(OCC(=O)O)cc3)NC(=O)[C@H](CN)NC(=O)CSC[C@@H](C(=O)N[C@@H](CCN)C(=O)NCCOCCOCC(=O)NCCCCCCCCCCC(=O)O)NC(=O)[C@H](CCC(=O)O)NC(=O)[C@H](C(C)C)NC(=O)[C@H](Cc3ccccc3Cl)NC(=O)[C@H](CCN)NC(=O)[C@@H](CC(C)C)NC(=O)[C@H](CCCN)NC(=O)[C@H](Cc3ccc(OCC(=O)O)cc3)NC(=O)[C@H](Cc3ccc(-c4ccccc4)cc3)NC(=O)[C@H](Cc3ccc(C(=O)O)cc3)NC2=O)c1 [Compound 1277] ({CH2CO}-[Dap]Y(Carboxymethyl)D[Phe(3-Me)][Phe(4-COOH)][Bip]Y(Carboxymethyl)[Orn][dL][Dab][Phe(2-Cl)]VEC[Dab][AEEA][Aun]-OH; thioether N-14) | 14.4 nM
CCC[C@@H]1NC(=O)CSC[C@@H](C(=O)N[C@@H](CCN)C(=O)NCCCCCCCCCCC(=O)O)NC(=O)[C@H](CO)NC(=O)[C@H](C(C)(C)O)NC(=O)[C@H](CC2CCCCC2)NC(=O)[C@H](CCN)NC(=O)[C@@H](CC(C)C)NC(=O)[C@H](CCCN)NC(=O)[C@H](Cc2ccc(OCC(=O)O)cc2)NC(=O)[C@H](Cc2ccc(-c3ccccc3)cc2)NC(=O)[C@H](Cc2ccc(OCC(=O)O)cc2)NC(=O)[C@H](Cc2cccc(C)c2)NC(=O)[C@H](CC(=O)O)NC(=O)[C@H](Cc2ccc(OCC(=O)O)cc2)NC1=O [Compound 2204] ({CH2CO}-[Nva]Y(Carboxymethyl)D[Phe(3-Me)]Y(Carboxymethyl)[Bip]Y(Carboxymethyl)[Orn][dL][Dab][Cha][Val(3-OH)]SC[Dab][Aun]-OH; thioether N-14) | 10.6 nM
Cc1cccc(C[C@@H]2NC(=O)[C@H](CC(=O)O)NC(=O)[C@H](Cc3ccc(OCC(=O)O)cc3)NC(=O)[C@H](CN)NC(=O)CSC[C@@H](C(=O)NCCOCCOCC(=O)N[C@@H](CCC(=O)O)C(=O)NCCCCCCCCCCC(=O)O)NC(=O)[C@H]([C@@H](C)O)NC(=O)[C@H](C(C)C)NC(=O)[C@H](CC3CCCCC3)NC(=O)[C@H](CCN)NC(=O)[C@@H](CC(C)C)NC(=O)[C@H](CCCN)NC(=O)[C@H](CCCNC(N)=O)NC(=O)[C@H](Cc3ccc(-c4ccccc4)cc3)NC(=O)[C@H](C(C)C)NC2=O)c1 [Compound 1033] ({CH2CO}-[Dap]Y(Carboxymethyl)D[Phe(3-Me)]V[Bip][Cit][Orn][dL][Dab][Cha]VTC[AEEA]E[Aun]-OH; thioether N-14) | 8.7 nM
Cc1cccc(C[C@@H]2NC(=O)[C@H](CC(=O)O)NC(=O)[C@H](Cc3ccc(OCC(=O)O)cc3)NC(=O)[C@H]([C@@H](C)O)NC(=O)CSC[C@@H](C(=O)N[C@@H](CCN)C(=O)NCCOCCOCC(=O)NCCCCCCCCCCC(=O)O)NC(=O)[C@H](CO)NC(=O)[C@H](C(C)(C)O)NC(=O)[C@H](CC3CCCCC3)NC(=O)[C@H](CCN)NC(=O)[C@@H](CC(C)C)NC(=O)[C@H](CCCN)NC(=O)[C@H](Cc3ccc(OCC(=O)O)cc3)NC(=O)[C@H](Cc3ccc(-c4ccccc4)cc3)NC(=O)[C@H](Cc3ccc(OCC(=O)O)cc3)NC2=O)c1 [Compound 2243] ({CH2CO}-TY(Carboxymethyl)D[Phe(3-Me)]Y(Carboxymethyl)[Bip]Y(Carboxymethyl)[Orn][dL][Dab][Cha][Val(3-OH)]SC[Dab][AEEA][Aun]-OH; thioether N-14) | 1.7 nM
CC(C)C[C@H]1NC(=O)[C@H](CCCN)NC(=O)[C@H](C(C)C)NC(=O)[C@H](Cc2ccc(-c3ccccc3)cc2)NC(=O)[C@H](C(C)C)NC(=O)[C@H](Cc2c[nH]c3ccccc23)NC(=O)[C@H](CC(=O)O)NC(=O)[C@H](Cc2ccc(OCC(=O)O)cc2)NC(=O)[C@H](CN)NC(=O)CSC[C@@H](C(=O)N[C@@H](C)C(=O)N[C@@H](CN)C(=O)NCCCCCCCCCCC(=O)O)NC(=O)[C@H]([C@@H](C)O)NC(=O)[C@H](C(C)C)NC(=O)[C@H](CC2CCCCC2)NC(=O)[C@H](Cc2cnc[nH]2)NC1=O [Compound 1081] ({CH2CO}-[Dap]Y(Carboxymethyl)DWV[Bip]V[Orn][dL]H[Cha]VTCA[Dap][Aun]-OH; thioether N-14) | 28.5 nM
CC(C)C[C@H]1NC(=O)[C@H](CCCN)NC(=O)[C@H](Cc2ccc(O)cc2)NC(=O)[C@H](Cc2ccc(-c3ccccc3)cc2)NC(=O)[C@H](Cc2ccc(OCC(=O)O)cc2)NC(=O)[C@H](Cc2ccc(Cl)c(Cl)c2)NC(=O)[C@H](CC(=O)O)NC(=O)[C@H](Cc2ccc(OCC(=O)O)cc2)NC(=O)[C@H](CN)NC(=O)CSC[C@@H](C(=O)N[C@@H](CCN)C(=O)NCCOCCOCC(=O)NCCCCCCCCCCC(=O)O)NC(=O)[C@H](CCCN)NC(=O)[C@H](C(C)C)NC(=O)[C@H](CC2CCCCC2)NC(=O)[C@H](CCN)NC1=O [Compound 1307] ({CH2CO}-[Dap]Y(Carboxymethyl)D[Phe(3,4-Cl2)]Y(Carboxymethyl)[Bip]Y[Orn][dL][Dab][Cha]V[Orn]C[Dab][AEEA][Aun]-OH; thioether N-14) | 49.6 nM
